Reference: patent publication US20220241311A1, “METHODS AND MATERIALS FOR TREATING GLYCOSYLATION DISORDERS” (priority 2018, published 2022)

Tested on: PGM1-defective patient fibroblasts
Assay: Nucleotide sugar analysis (UPLC-PDA), patient fibroblasts
Assay type: cell-based, human
Procedure: Levels of nucleotides and sugar-nucleotides were determined. Fibroblast cell pellets (5×10^6 cells per sample) were lysed and extracted in 0.37 ml ice-cold 0.5 M perchloric acid with sonication on ice. Samples were neutralized with 86 μl ice-cold neutralization solution (2.5 M KOH in 1.5 M K2HPO4) after 5 minute sonication. To remove precipitated potassium perchlorate neutralized samples were centrifuged at 4° C. and 16,400×g for 10 minutes and filtered with 0.2 μm filters. Nucleotides and sugar-nucleotides were immediately analyzed and separated via ion-pair reverse phased chromatography using an Acquity HSS T3 column (150 mm×2.1 mm, 1.7 μm, Waters) connected to an Acquity H-class UPLC system. The column temperature was set to 40° C. and the column was equilibrated with solvent A (50 mM potassium phosphate buffer, 8 mM tetrabutylammonium hydrogensulfate, pH 6.5) at a flow rate of 0.45 ml min^−1. Autosampler temperature was maintained at 6° C. […] Nucleotides were detected by Acquity PDA detector (Waters, 260 nm) and quantified using ultrapure standards (Sigma). Data acquisition and processing was performed with the Empower3 software suite (Waters).
Nucleotide sugars were measured with serum starvation during 18 hours of culturing and without of serum starvation and applying normal media.

[1] = patient 1, 1 d + 0.75 mM Galactose
[2] = patient 1, 4 d + 0.75 mM Galactose
[3] = patient 2, 1 d + 0.75 mM Galactose
[4] = patient 2, 4 d + 0.75 mM Galactose

`O=C[C@H](O)[C@@H](O)[C@@H](O)[C@H](O)CO` [D-gal, D-galactose] gave an ADP (patient 1, 1 d 2 mM Galactose) of 580.50 pmol/mio cells, an ATP (patient 1, 1 d 2 mM Galactose) of 2719.61 pmol/mio cells and a CTP (patient 1, 1 d 2 mM Galactose) of 342.25 pmol/mio cells. It also gave a GDP (patient 1, 1 d 2 mM Galactose) of 293.65 pmol/mio cells, a GDP-Man (patient 1, 1 d 2 mM Galactose) of 107.17 pmol/mio cells and a GTP (patient 1, 1 d 2 mM Galactose) of 542.24 pmol/mio cells. The UDP (patient 1, 1 d 2 mM Galactose) was 129.40 pmol/mio cells, the UDP-Gal (patient 1, 1 d 2 mM Galactose) was 453.09 pmol/mio cells and the UDP-Glc (patient 1, 1 d 2 mM Galactose) was 650.22 pmol/mio cells. For the same compound, the UDP-GlcNAc (patient 1, 1 d 2 mM Galactose) was 102.26 pmol/mio cells, the UTP (patient 1, 1 d 2 mM Galactose) was 1449.38 pmol/mio cells and the cAMP (patient 1, 1 d 2 mM Galactose) was 74.49 pmol/mio cells. It also gave an ADP [1] of 584.35 pmol/mio cells, an AMP [1] of 23.07 pmol/mio cells and an ATP [1] of 2943.38 pmol/mio cells. The CTP [1] was 366.00 pmol/mio cells, the GDP [1] was 246.90 pmol/mio cells and the GDP-Man [1] was 155.03 pmol/mio cells. The GTP [1] was 588.22 pmol/mio cells, the UDP [1] was 134.67 pmol/mio cells and the UDP-Gal [1] was 386.15 pmol/mio cells. It also gave a UDP-Glc [1] of 604.90 pmol/mio cells, a UDP-GlcNAc [1] of 121.57 pmol/mio cells and a UTP [1] of 1510.19 pmol/mio cells. It also gave a cAMP [1] of 71.81 pmol/mio cells, an ADP (patient 1, 4 d 2 mM Galactose) of 772.84 pmol/mio cells and an AMP (patient 1, 4 d 2 mM Galactose) of 22.72 pmol/mio cells. It also gave an ATP (patient 1, 4 d 2 mM Galactose) of 3861.23 pmol/mio cells, a CTP (patient 1, 4 d 2 mM Galactose) of 370.91 pmol/mio cells and a GDP (patient 1, 4 d 2 mM Galactose) of 387.40 pmol/mio cells. It also gave a GDP-Man (patient 1, 4 d 2 mM Galactose) of 170.10 pmol/mio cells, a GTP (patient 1, 4 d 2 mM Galactose) of 763.70 pmol/mio cells and a UDP (patient 1, 4 d 2 mM Galactose) of 215.93 pmol/mio cells. The UDP-Gal (patient 1, 4 d 2 mM Galactose) was 398.07 pmol/mio cells, the UDP-Glc (patient 1, 4 d 2 mM Galactose) was 620.64 pmol/mio cells and the UDP-GlcNAc (patient 1, 4 d 2 mM Galactose) was 12.26 pmol/mio cells. The UTP (patient 1, 4 d 2 mM Galactose) was 1569.45 pmol/mio cells, the cAMP (patient 1, 4 d 2 mM Galactose) was 71.92 pmol/mio cells and the ADP [2] was 789.98 pmol/mio cells. The AMP [2] was 34.87 pmol/mio cells, the ATP [2] was 3796.06 pmol/mio cells and the CTP [2] was 342.60 pmol/mio cells. It also gave a GDP [2] of 422.05 pmol/mio cells, a GDP-Man [2] of 217.57 pmol/mio cells and a GTP [2] of 749.54 pmol/mio cells. For the same compound, the UDP [2] was 208.17 pmol/mio cells, the UDP-Gal [2] was 331.94 pmol/mio cells and the UDP-Glc [2] was 475.08 pmol/mio cells. The UDP-GlcNAc [2] was 38.85 pmol/mio cells, the UTP [2] was 1526.34 pmol/mio cells and the cAMP [2] was 73.68 pmol/mio cells. The ADP (patient 2, 1 d 2 mM Galactose) was 610.98 pmol/mio cells, the AMP (patient 2, 1 d 2 mM Galactose) was 18.34 pmol/mio cells and the ATP (patient 2, 1 d 2 mM Galactose) was 5088.22 pmol/mio cells. It also gave a CTP (patient 2, 1 d 2 mM Galactose) of 419.20 pmol/mio cells, a GDP (patient 2, 1 d 2 mM Galactose) of 301.50 pmol/mio cells and a GDP-Man (patient 2, 1 d 2 mM Galactose) of 194.09 pmol/mio cells. For the same compound, the GTP (patient 2, 1 d 2 mM Galactose) was 982.69 pmol/mio cells, the UDP (patient 2, 1 d 2 mM Galactose) was 166.53 pmol/mio cells and the UDP-Gal (patient 2, 1 d 2 mM Galactose) was 527.44 pmol/mio cells. The UDP-Glc (patient 2, 1 d 2 mM Galactose) was 871.97 pmol/mio cells, the UDP-GlcNAc (patient 2, 1 d 2 mM Galactose) was 5.21 pmol/mio cells and the UTP (patient 2, 1 d 2 mM Galactose) was 2093.30 pmol/mio cells. It also gave a cAMP (patient 2, 1 d 2 mM Galactose) of 81.52 pmol/mio cells, an ADP [3] of 754.10 pmol/mio cells and an AMP [3] of 16.43 pmol/mio cells. It also gave an ATP [3] of 5766.25 pmol/mio cells, a CTP [3] of 448.80 pmol/mio cells and a GDP [3] of 356.25 pmol/mio cells. It also gave a GDP-Man [3] of 236.64 pmol/mio cells, a GTP [3] of 1110.15 pmol/mio cells and a UDP [3] of 219.47 pmol/mio cells. For the same compound, the UDP-Gal [3] was 478.66 pmol/mio cells, the UDP-Glc [3] was 821.98 pmol/mio cells and the UDP-GlcNAc [3] was 36.15 pmol/mio cells. It also gave a UTP [3] of 2422.95 pmol/mio cells, a cAMP [3] of 77.51 pmol/mio cells and an ADP (patient 2, 4 d 2 mM Galactose) of 849.99 pmol/mio cells. It also gave an AMP (patient 2, 4 d 2 mM Galactose) of 20.40 pmol/mio cells, an ATP (patient 2, 4 d 2 mM Galactose) of 6520.85 pmol/mio cells and a CTP (patient 2, 4 d 2 mM Galactose) of 430.21 pmol/mio cells. For the same compound, the GDP (patient 2, 4 d 2 mM Galactose) was 356.50 pmol/mio cells, the GDP-Man (patient 2, 4 d 2 mM Galactose) was 340.74 pmol/mio cells and the GTP (patient 2, 4 d 2 mM Galactose) was 1241.95 pmol/mio cells. It also gave a UDP (patient 2, 4 d 2 mM Galactose) of 249.58 pmol/mio cells, a UDP-Gal (patient 2, 4 d 2 mM Galactose) of 455.92 pmol/mio cells and a UDP-Glc (patient 2, 4 d 2 mM Galactose) of 665.41 pmol/mio cells. It also gave a UDP-GlcNAc (patient 2, 4 d 2 mM Galactose) of 2.63 pmol/mio cells, a UTP (patient 2, 4 d 2 mM Galactose) of 2810.26 pmol/mio cells and a cAMP (patient 2, 4 d 2 mM Galactose) of 70.40 pmol/mio cells. For the same compound, the ADP [4] was 834.56 pmol/mio cells, the AMP [4] was 21.45 pmol/mio cells and the ATP [4] was 6841.61 pmol/mio cells. The CTP [4] was 425.54 pmol/mio cells, the GDP [4] was 394.32 pmol/mio cells and the GDP-Man [4] was 203.23 pmol/mio cells. For the same compound, the GTP [4] was 1263.21 pmol/mio cells, the UDP [4] was 262.74 pmol/mio cells and the UDP-Gal [4] was 390.10 pmol/mio cells. It also gave a UDP-Glc [4] of 611.51 pmol/mio cells, a UDP-GlcNAc [4] of 4.53 pmol/mio cells and a UTP [4] of 2976.41 pmol/mio cells. The cAMP [4] was 72.52 pmol/mio cells and the “Nucleotide sugar ratio UDP-Glc/UDP-Gal, mean” value (patient cell lines on D-gal (1.63 without)) was 1.56.
